Experimental data reported in ChEMBL document CHEMBL1124732, “Synthesis, conformation, and immunosuppressive activities of three analogues of cyclosporin A modified in the 1-position” (1990).

Assay: Relative immunosuppressive activity tested against inhibition of concanavalin A stimulated thymocytes
Type: functional
Parameters: scale not given: the % may be the effect or the level left

**Q.** Which Activity does the source give for CC#CC[C@@H](C)[C@@H](O)[C@H]1C(=O)N[C@@H](CC)C(=O)N(C)CC(=O)N(C)[C@@H](CC(C)C)C(=O)N[C@@H](C(C)C)C(=O)N(C)[C@@H](CC(C)C)C(=O)N[C@@H](C)C(=O)N[C@H](C)C(=O)N(C)[C@@H](CC(C)C)C(=O)N(C)[C@@H](CC(C)C)C(=O)N(C)[C@@H](C(C)C)C(=O)N1C here?
**A.** The Activity was 10%.
